Where only a bound is given, the exact number is not on record here.

Experiment in all cases: Kinase panel (mobility shift)
What all share (format): biochemical

In one assay the target is EPH-A4 (Homo sapiens, UniProt P54764). In short, it runs like this: (§1)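 Compound at 5 um + kinase + fluor-labeled substrate, standardized mix; rxn stopped; electrophoretic separation of product/substrate on chip; activity = product vs substrate peak fluorescence. Bins A ≥95%, B 90-94%, C 80-89%.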
For the next assay, the target named is BRK (Homo sapiens, UniProt Q13882). In short, it runs like this:
as §1

For a further assay, the target named is KIT (Homo sapiens, UniProt P10721). The method in brief: as §1
A further assay concerns the target HIPK3 (Homo sapiens, UniProt Q9H422). In short, it runs like this: as §1
Another assay has as its target PDGFR-b (Homo sapiens, UniProt P09619). In short, it runs like this: as §1
Another assay concerns the target T1, MUSK (Homo sapiens, UniProt O15146).
T1 sequence (O15146 24-869): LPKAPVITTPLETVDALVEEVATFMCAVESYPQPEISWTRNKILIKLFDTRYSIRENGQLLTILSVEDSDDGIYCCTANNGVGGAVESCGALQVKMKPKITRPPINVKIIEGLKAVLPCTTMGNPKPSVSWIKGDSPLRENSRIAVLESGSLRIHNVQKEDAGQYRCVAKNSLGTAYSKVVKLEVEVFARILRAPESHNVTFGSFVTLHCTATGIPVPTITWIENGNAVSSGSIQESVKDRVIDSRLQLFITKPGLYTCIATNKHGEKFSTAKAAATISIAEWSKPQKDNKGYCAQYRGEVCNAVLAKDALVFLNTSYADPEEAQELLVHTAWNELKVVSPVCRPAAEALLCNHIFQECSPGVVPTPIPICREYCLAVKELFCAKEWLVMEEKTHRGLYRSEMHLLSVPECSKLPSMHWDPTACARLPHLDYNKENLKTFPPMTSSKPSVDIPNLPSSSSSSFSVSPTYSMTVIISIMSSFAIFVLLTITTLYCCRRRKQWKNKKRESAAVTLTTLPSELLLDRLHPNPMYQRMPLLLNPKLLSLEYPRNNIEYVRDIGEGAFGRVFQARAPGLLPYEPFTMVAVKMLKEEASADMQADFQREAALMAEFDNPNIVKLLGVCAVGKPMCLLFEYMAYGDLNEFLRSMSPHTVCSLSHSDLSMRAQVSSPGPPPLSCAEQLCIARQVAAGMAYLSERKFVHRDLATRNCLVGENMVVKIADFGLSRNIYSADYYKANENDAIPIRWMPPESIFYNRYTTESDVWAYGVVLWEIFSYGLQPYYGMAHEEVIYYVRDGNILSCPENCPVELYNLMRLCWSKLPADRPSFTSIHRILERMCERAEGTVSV
In short, it runs like this: as §1

A further assay concerns the target P38-a (Homo sapiens, UniProt Q16539). To be noted: at 5 um. In short, it runs like this: as §1
A further assay deals with TIE2 (Homo sapiens, UniProt Q02763). In short, it runs like this:
as §1

A further assay concerns the target P38-b (Homo sapiens, UniProt Q15759). The method in brief: as §1
In the next assay the target is PDGFR-a (Homo sapiens, UniProt P16234). The method in brief:
as §1

The next assay has as its target T2, TYRO3 (Homo sapiens, UniProt Q06418).
T2 sequence (Q06418 41-890): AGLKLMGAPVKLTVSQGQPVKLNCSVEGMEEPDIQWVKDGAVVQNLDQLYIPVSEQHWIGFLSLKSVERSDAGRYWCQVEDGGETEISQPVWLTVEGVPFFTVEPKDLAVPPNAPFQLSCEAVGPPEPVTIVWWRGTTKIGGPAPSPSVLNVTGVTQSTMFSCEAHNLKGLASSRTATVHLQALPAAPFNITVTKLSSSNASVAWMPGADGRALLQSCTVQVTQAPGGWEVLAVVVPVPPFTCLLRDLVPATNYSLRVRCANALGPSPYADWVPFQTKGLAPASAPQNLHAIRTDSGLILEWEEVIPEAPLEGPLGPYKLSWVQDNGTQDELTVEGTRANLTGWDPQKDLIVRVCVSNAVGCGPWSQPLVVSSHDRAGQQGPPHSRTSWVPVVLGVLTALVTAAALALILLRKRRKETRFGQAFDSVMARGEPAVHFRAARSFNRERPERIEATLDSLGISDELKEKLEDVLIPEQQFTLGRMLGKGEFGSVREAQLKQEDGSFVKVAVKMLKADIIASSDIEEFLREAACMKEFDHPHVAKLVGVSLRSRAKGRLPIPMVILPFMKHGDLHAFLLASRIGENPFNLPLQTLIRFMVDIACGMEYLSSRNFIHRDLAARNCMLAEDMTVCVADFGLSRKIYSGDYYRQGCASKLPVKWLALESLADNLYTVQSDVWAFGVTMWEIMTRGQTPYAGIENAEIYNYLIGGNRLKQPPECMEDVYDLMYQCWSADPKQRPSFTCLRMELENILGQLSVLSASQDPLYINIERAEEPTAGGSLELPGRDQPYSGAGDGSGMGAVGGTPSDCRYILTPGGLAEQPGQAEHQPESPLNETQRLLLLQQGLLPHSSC
In short, it runs like this: as §1

The next assay concerns the target RIPK2 (Homo sapiens, UniProt O43353). In short, it runs like this:
as §1

Another assay has as its target LOK (Homo sapiens, UniProt O94804). Conditions: at 5 um. In short, it runs like this: as §1

HIPK3, sequence (Q9H422 whole entry, species assumed): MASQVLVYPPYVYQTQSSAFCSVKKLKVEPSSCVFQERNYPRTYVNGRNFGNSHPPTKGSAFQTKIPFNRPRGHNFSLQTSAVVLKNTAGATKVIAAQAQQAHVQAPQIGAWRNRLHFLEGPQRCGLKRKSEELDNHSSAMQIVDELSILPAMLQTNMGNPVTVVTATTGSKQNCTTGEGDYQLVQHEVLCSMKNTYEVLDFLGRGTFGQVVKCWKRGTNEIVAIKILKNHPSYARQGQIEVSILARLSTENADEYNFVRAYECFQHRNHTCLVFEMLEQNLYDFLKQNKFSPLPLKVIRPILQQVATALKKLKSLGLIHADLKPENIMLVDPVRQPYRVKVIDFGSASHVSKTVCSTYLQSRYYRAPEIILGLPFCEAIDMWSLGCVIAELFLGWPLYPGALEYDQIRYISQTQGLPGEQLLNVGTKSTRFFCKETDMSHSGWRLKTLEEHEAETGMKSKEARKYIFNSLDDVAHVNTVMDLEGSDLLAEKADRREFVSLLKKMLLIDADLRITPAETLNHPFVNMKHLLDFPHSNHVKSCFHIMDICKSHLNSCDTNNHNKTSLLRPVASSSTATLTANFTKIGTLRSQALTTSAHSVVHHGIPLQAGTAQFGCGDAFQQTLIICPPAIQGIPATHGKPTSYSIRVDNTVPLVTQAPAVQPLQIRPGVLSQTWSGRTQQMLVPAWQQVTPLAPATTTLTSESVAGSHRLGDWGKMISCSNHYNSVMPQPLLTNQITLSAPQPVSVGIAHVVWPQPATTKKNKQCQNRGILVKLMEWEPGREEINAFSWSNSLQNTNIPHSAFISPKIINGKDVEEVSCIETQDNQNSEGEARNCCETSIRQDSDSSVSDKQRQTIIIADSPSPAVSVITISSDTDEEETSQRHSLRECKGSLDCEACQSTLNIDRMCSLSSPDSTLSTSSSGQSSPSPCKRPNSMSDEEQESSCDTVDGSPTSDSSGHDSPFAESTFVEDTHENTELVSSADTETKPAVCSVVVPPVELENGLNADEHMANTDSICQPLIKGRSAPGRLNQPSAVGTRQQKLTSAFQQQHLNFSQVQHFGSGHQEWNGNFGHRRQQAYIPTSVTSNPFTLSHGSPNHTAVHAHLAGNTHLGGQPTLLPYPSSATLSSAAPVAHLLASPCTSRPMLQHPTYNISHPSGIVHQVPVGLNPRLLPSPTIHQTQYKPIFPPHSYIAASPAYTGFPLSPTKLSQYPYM
BRK, sequence (Q13882 whole entry, species assumed): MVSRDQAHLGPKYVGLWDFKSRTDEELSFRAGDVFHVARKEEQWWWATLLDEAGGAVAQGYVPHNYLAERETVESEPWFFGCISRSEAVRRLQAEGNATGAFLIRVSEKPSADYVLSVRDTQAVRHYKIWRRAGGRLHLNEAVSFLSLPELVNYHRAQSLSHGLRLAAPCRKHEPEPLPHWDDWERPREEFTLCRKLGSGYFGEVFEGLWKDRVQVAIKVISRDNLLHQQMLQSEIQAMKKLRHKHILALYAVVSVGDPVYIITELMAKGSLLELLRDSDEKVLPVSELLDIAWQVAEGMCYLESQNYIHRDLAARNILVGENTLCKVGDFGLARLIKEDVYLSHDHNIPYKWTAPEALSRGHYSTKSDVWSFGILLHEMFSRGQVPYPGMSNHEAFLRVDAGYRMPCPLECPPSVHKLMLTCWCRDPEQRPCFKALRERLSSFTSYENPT
TIE2, sequence (Q02763 23-1124, species assumed): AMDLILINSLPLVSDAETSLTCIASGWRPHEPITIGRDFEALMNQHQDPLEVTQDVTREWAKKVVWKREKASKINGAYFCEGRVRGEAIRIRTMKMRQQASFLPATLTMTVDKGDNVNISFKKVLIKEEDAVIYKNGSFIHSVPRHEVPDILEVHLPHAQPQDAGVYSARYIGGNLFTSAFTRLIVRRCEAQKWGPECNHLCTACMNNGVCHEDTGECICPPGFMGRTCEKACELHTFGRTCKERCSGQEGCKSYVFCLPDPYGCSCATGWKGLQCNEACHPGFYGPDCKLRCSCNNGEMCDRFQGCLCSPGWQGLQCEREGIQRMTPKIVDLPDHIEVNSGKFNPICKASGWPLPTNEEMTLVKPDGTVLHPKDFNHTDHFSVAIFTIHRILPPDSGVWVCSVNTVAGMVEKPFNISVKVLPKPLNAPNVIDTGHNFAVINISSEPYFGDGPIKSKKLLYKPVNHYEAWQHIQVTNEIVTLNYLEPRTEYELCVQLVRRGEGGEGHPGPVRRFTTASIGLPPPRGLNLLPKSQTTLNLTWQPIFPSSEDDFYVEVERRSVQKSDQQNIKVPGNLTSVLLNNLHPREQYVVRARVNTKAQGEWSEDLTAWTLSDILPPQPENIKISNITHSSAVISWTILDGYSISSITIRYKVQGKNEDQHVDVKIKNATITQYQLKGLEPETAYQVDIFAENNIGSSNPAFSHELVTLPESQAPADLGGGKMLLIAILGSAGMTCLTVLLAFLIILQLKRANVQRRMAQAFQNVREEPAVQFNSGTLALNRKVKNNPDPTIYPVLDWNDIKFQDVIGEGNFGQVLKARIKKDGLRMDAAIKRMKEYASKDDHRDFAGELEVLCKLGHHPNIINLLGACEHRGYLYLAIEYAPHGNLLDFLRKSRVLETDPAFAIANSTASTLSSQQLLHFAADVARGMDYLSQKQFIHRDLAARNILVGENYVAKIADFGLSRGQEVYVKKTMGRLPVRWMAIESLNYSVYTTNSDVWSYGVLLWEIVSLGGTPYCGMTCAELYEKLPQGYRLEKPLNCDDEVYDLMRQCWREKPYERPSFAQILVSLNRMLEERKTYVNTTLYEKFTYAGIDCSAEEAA
PDGFR-b, sequence (P09619 33-1106, species assumed): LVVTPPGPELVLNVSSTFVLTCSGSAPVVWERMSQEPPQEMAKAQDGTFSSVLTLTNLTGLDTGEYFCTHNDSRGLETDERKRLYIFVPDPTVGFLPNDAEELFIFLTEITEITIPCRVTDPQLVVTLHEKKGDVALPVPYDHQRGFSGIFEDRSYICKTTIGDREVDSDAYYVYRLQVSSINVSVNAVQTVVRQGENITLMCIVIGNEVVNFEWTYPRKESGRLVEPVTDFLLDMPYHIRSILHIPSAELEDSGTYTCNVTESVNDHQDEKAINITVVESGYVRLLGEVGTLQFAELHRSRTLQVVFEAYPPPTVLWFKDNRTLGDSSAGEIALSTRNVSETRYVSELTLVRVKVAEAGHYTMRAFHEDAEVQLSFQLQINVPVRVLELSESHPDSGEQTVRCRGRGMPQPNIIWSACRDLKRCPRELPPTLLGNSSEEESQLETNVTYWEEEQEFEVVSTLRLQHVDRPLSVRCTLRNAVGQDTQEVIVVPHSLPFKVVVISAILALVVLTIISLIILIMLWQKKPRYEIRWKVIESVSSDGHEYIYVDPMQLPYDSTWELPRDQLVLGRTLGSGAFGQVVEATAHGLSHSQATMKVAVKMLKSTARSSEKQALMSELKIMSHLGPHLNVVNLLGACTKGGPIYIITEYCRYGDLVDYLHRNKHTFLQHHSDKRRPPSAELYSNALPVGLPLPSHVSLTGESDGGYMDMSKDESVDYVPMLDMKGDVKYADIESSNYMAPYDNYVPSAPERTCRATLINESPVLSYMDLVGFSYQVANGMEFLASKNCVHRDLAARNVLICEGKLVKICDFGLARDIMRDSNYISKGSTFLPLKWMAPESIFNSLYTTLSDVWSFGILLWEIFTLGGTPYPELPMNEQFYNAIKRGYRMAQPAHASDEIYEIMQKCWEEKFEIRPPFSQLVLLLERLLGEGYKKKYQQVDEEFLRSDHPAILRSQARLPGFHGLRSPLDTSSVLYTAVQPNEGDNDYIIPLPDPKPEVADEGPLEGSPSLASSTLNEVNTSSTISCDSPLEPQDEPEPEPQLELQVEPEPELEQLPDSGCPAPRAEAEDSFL
P38-b, sequence (Q15759 whole entry, species assumed): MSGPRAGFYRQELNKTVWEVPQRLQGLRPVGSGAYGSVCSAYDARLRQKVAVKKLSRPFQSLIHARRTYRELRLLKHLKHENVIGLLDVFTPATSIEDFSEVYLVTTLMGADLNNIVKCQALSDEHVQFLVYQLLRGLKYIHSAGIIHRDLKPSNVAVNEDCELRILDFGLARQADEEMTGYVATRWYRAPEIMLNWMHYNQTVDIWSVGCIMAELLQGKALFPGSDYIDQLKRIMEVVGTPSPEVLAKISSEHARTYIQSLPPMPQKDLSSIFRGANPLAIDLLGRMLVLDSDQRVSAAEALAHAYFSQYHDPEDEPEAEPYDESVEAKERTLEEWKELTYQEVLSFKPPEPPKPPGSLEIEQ
RIPK2, sequence (O43353 whole entry, species assumed): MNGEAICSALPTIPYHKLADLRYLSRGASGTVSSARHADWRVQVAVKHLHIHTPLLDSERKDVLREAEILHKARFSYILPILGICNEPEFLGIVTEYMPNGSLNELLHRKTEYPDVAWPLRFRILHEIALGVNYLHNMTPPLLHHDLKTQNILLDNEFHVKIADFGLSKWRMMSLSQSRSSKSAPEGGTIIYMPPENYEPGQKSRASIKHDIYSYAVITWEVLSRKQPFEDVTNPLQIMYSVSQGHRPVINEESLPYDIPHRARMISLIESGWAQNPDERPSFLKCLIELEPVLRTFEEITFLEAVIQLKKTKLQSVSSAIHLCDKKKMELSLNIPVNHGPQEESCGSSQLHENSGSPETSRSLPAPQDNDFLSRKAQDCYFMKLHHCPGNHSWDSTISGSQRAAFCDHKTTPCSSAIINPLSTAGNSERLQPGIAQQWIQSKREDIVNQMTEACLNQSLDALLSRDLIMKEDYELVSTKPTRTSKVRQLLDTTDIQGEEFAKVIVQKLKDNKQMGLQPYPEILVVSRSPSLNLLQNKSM

Take `CNC(=O)c1cc(Oc2ccc(NC(=O)c3nc(OC)oc3-c3ccc(F)c(F)c3)cc2F)ccn1` [Compound 24]: the inhibition at 5 µM at EPH-A4 is below 50%; at BRK it was below 50%; at KIT, below 50%; on HIPK3, 50 to 79%; on PDGFR-b it was below 50%; at MUSK, below 50%. Also, the inhibition at 5 µM at TIE2 was below 50%; on P38-b it was below 50%; at PDGFR-a, below 50%; on TYRO3 it was 50 to 79%; on RIPK2, 50 to 79%. The “inhibition of kinase activity, P38-a” value on P38-a is recorded as “D (category D for 50-79)”. Also, the “inhibition of kinase activity, LOK” value at LOK was “C (C=80%-89% at 5 um)”.
As to `CNC(=O)c1ccc(Oc2ccc(NC(=O)c3nc(Cl)oc3-c3ccc(F)cc3)c(F)c2)cn1` [Compound 36], the inhibition at 5 µM on EPH-A4 is below 50%; on BRK, below 50%; on KIT it was below 50%; at HIPK3 it was 50 to 79%; at PDGFR-b, below 50%; on MUSK, below 50%. Further, the inhibition at 5 µM is below 50% on TIE2; below 50% at P38-b; below 50% at PDGFR-a; below 50% on TYRO3; 50 to 79% on RIPK2. Also, at P38-a, the “inhibition of kinase activity, P38-a” value was “E (category E is less than 50%)”. The “inhibition of kinase activity, LOK” value at LOK is given as “E (category E is less than 50%)”.
Turning to `CNC(=O)c1cc(Oc2ccc(NC(=O)c3nc(SC)oc3-c3ccc(F)cc3F)cc2)ccn1` [Compound 6], the inhibition at 5 µM at EPH-A4 is below 50%; on BRK, at least 95%; on KIT, 80 to 89%; on HIPK3 it was below 50%; at PDGFR-b it was below 50%; at MUSK, below 50%. The inhibition at 5 µM on TIE2 was 80 to 89%; at P38-b, below 50%; at PDGFR-a, below 50%; on TYRO3 it was at least 95%; on RIPK2 it was at least 95%. The “inhibition of kinase activity, P38-a” value on P38-a is “E (category E is less than 50%)”. The “inhibition of kinase activity, LOK” value on LOK is reported as “E (category E is less than 50%)”.
Take `CNC(=O)c1cc(Oc2ccc(NC(=O)c3nc(SC)oc3-c3ccc(Cl)s3)cc2)ccn1` [Compound 5]: the inhibition at 5 µM at EPH-A4 was below 50%; on BRK it was 50 to 79%; on KIT, below 50%; at HIPK3 it was below 50%; on PDGFR-b it was below 50%; at MUSK it was below 50%. For the same molecule, the inhibition at 5 µM at TIE2 is below 50%; on P38-b, below 50%; on PDGFR-a, below 50%; on TYRO3, 80 to 89%; on RIPK2 it was 50 to 79%. Also, on P38-a, the “inhibition of kinase activity, P38-a” value is “E (category E is less than 50%)”. Further, the “inhibition of kinase activity, LOK” value at LOK is “E (category E is less than 50%)”.
For the molecule `CNC(=O)c1cc(Oc2ccc(NC(=O)c3nc(NC)oc3-c3ccc(F)cc3)cc2F)ccn1` [Compound 14], the inhibition at 5 µM at EPH-A4 is 50 to 79%; on BRK it was 80 to 89%; on KIT, 50 to 79%; on HIPK3 it was 50 to 79%; on PDGFR-b, below 50%; on MUSK, 50 to 79%. Also, the inhibition at 5 µM on TIE2 is 50 to 79%; at P38-b it was below 50%; on PDGFR-a, below 50%; on TYRO3, 80 to 89%; at RIPK2, 90 to 94%. In addition, at P38-a, the “inhibition of kinase activity, P38-a” value was “D (category D for 50-79)”. Moreover, the “inhibition of kinase activity, LOK” value at LOK is “C (C=80%-89% at 5 um)”.

The record behind these values is patent US11629143B2, “HipK4 inhibitors and uses thereof” (Vibliome Therapeutics, LLC, priority 2020, dated 2023).
